# Legend:
# [1] = system: HCT-116 colon carcinoma; assay: Inhibition of cell proliferation (14C-thymidine incorporation), HCT-116; assay type: cell-based; conditions: Homo sapiens, HCT-116, HCT116
# How it was run: (§1)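 Cells (3000-8000/well) grown 24 h at 37° C, 5% CO2, then given compound in DMSO for 24 h before adding methyl 14C-thymidine (0.2 uCi/well) for a further 24 h with drug. After PBS washes, incorporation into DNA counted by scintillation.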
# [2] = target: T1, HER2 (Homo sapiens, UniProt P04626); assay: HER2 kinase Screening Assay; assay type: biochemical; conditions: 33P-γ-ATP incorporation, 10 μM ATP
# T1 construct: polyhistidine (N)
# T1 sequence (P04626 676-1255 limits assumed): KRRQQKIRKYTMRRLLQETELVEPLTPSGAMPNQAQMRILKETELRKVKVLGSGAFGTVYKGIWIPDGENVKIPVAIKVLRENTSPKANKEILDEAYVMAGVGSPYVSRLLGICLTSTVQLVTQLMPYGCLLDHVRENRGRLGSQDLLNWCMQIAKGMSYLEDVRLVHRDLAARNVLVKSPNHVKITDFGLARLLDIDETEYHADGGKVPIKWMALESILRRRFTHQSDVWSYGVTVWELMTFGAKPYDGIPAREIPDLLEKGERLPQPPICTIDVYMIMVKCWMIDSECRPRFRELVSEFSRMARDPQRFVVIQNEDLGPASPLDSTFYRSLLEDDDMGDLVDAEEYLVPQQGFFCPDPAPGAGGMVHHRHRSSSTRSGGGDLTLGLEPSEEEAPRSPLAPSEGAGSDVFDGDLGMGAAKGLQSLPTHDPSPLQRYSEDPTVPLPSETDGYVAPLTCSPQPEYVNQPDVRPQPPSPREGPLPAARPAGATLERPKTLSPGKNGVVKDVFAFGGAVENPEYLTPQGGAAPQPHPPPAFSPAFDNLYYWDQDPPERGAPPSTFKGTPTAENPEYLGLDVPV
# [3] = target: T2, VEGF-R2 (Rattus norvegicus, UniProt O08775); assay: VEGF-R2 Screening Assay; assay type: biochemical; conditions: 33P-γ-ATP incorporation, 10 μM ATP
# T2 construct: polyhistidine (N)
# T2 sequence (O08775 786-1343): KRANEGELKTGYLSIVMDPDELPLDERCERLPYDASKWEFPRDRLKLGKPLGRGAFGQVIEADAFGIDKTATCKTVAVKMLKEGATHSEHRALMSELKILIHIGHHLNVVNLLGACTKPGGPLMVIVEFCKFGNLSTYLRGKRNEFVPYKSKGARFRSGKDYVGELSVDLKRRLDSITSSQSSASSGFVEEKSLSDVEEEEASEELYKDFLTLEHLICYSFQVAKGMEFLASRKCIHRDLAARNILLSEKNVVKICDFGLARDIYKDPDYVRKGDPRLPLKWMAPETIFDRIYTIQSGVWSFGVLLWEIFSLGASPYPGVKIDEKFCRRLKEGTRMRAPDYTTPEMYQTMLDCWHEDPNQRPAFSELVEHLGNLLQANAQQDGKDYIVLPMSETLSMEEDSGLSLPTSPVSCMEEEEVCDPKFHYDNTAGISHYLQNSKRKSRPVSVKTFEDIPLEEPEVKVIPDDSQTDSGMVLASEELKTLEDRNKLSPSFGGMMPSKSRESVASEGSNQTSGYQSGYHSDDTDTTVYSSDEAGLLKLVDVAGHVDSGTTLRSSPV
# How it was run: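 The N-terminally His-tagged rat VEGF-R2 kinase domain (aa 786-1343), diluted in 50 mM Tris-HCl pH 8.0 with 0.1% BSA, phosphorylated a biotinylated histone-H1 peptide with 33P-γ-ATP on Flashplates for 1 h at 30 °C in 1% DMSO. After washes with EDTA/PBS, immobilized 33P was counted by scintillation.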
# [4] = target: T3, Aurora-A (Mus musculus, UniProt P97477); assay: Aurora-A Screening Assay; assay type: biochemical, murine; conditions: 33P-γ-ATP incorporation, 10 μM ATP
# T3 construct: made in house; host or cells: sf9 insect cells
# T3 sequence (P97477 1-395): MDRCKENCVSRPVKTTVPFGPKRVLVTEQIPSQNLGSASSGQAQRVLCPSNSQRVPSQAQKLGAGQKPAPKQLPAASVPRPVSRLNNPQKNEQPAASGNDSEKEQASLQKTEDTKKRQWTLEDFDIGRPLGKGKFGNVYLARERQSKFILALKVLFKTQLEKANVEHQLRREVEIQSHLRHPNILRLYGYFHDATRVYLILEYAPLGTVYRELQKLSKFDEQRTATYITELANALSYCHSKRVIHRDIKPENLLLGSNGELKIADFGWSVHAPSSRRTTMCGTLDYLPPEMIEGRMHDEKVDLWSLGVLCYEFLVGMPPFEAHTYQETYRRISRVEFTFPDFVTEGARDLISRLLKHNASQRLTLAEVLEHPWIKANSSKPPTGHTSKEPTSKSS
# [5] = target: T4, CDK1:Cyclin-B (Homo sapiens, UniProt P06493); assay: CDK1 Screening Assay; assay type: biochemical; conditions: 33P-γ-ATP incorporation, 10 μM ATP
# T4 construct: purchased New England Biolabs, Beverly, Mass; 6020; host or cells: insect cells
# T4 sequence (P06493 whole entry): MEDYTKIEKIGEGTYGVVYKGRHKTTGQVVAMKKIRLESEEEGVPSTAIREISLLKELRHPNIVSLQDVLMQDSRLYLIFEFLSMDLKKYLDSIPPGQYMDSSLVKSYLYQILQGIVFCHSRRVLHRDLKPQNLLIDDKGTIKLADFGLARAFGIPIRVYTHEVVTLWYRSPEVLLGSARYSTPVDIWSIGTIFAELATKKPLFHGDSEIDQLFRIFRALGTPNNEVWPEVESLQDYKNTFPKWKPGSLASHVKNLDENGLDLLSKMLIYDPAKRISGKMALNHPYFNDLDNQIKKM
# T4 sequence (P14635 whole entry partner): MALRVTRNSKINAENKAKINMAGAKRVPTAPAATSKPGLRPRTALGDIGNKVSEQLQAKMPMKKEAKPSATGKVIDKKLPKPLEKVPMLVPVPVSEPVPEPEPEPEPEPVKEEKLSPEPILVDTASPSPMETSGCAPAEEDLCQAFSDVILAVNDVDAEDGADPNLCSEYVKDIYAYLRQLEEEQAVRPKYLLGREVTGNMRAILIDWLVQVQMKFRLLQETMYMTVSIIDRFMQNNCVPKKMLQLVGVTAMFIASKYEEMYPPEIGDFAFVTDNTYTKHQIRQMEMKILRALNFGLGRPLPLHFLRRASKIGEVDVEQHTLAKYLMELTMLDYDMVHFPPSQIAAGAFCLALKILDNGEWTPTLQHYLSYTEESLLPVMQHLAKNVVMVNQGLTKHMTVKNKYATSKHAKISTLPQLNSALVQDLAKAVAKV
# How it was run: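 Human CDK1/cyclin B co-expressed in insect cells (30 ng/well) in 50 mM Tris pH 8, 10 mM MgCl2, with 10 μM ATP, 33P-γ-ATP and 0.025 μM biotinylated histone H1 peptide (reaction-mix levels); 1% DMSO final. 1 h at 30° C. 33P incorporation into streptavidin-captured peptide by scintillation counting.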
# [6] = system: HeLa cervical adenocarcinoma; assay: Inhibition of cell proliferation (14C-thymidine incorporation), HeLa; assay type: cell-based; conditions: Homo sapiens;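 also: HeLa cells in 96-well scintillating plates, compound for 24 h then 24 h more with 14C-thymidine, counting label built into new DNA against DMSO-only control wells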
# [7] = system: A375 malignant melanoma; assay: Inhibition of cell proliferation (14C-thymidine incorporation), A375; assay type: cell-based, human; conditions: Homo sapiens, A-375
# How it was run: as §1
# [8] = target: T5, RET (Homo sapiens, UniProt P07949); assay: RET Kinase Screening Assay; assay type: biochemical; conditions: 33P-γ-ATP incorporation, 10 μM ATP
# T5 construct: the RET cytoplasmic domain consisting of the last 492 amino acids of the intracellular domain of the RET tyrosine kinase; histidine tag (N); made in house; host or cells: Hi5 insect cells
# T5 sequence (P07949 658-1114 limits assumed): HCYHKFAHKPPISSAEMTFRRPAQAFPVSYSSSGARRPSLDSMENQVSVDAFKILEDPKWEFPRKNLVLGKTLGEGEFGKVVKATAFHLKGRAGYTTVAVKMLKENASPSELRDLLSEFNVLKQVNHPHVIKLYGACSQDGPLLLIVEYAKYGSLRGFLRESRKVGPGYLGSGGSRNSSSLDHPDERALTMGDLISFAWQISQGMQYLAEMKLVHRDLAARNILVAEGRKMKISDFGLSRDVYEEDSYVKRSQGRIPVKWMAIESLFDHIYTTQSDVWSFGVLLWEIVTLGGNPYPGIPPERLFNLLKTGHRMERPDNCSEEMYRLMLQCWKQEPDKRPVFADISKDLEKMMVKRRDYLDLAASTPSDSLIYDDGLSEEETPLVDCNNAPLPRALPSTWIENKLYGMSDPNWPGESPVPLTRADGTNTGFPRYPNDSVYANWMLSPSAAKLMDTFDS
SMILES,IC50 [1] [µM],IC50 [2] [µM],IC50 [3] [µM],IC50 [4] [µM],IC50 [5] [µM],IC50 [6] [µM],IC50 [7] [µM],IC50 [8] [µM]
"CN1CCN(CCc2ccc(Nc3nccc(-c4c[nH]c5ncccc45)n3)cc2)CC1 [Cpd 21, {4-[2-(4-Methyl-piperazin-1-yl)-ethyl]-phenyl}-[4-(1H-pyrrolo[2,3-b]pyridin-3-yl)-pyrimidin-2-yl]-amine]",0.0159,0.009,0.075,0.197,0.068,0.0315,0.0295,–
"COc1cc(Nc2nccc(-c3c[nH]c4ncccc34)n2)cc(OC)c1OC [Cpd 2, [4-(1H-Pyrrolo[2,3-b]pyridin-3-yl)-pyrimidin-2-yl]-(3,4,5-trimethoxy-phenyl)-amine]",0.56,0.206,0.046,0.063,0.169,0.33,0.75,–
"CCNCCc1ccc(Nc2nccc(-c3c[nH]c4ncccc34)n2)cc1 [Cpd 26, [4-(2-Ethylamino-ethyl)-phenyl]-[4-(1H-pyrrolo[2,3-b]pyridin-3-yl)-pyrimidin-2-yl]-amine]",0.0135,0.006,0.094,0.157,0.014,0.026,0.0222,–
"OCCc1ccc(Nc2nccc(-c3c[nH]c4ncccc34)n2)cc1 [Cpd 1, 2-{4-[4-(1H-Pyrrolo[2,3-b]pyridin-3-yl)-pyrimidin-2-ylamino]-phenyl}-ethanol]",0.022,0.008,0.087,0.159,0.019,0.056,0.066,0.337
"CCN(CC)CCc1ccc(Nc2nccc(-c3c[nH]c4ncccc34)n2)cc1 [Cpd 24, [4-(2-Diethylamino-ethyl)-phenyl]-[4-(1H-pyrrolo[2,3-b]pyridin-3-yl)-pyrimidin-2-yl]-amine]",0.018,0.009,0.089,0.244,0.028,0.034,0.031,–

# Now from value to compound:
IC50 [1] [µM],IC50 [2] [µM],IC50 [3] [µM],IC50 [4] [µM],IC50 [5] [µM],IC50 [6] [µM],IC50 [7] [µM],IC50 [8] [µM],SMILES
0.013,0.011,0.065,0.162,0.032,0.029,0.021,–,"c1cnc2[nH]cc(-c3ccnc(Nc4ccc(CCN5CCCC5)cc4)n3)c2c1 [Cpd 19, [4-(2-Pyrrolidin-1-yl-ethyl)-phenyl]-[4-(1H-pyrrolo[2,3-b]pyridin-3-yl)-pyrimidin-2-yl]-amine]"
0.037,0.025,0.186,0.253,0.134,0.14,0.11,0.892,"c1cnc2[nH]cc(-c3ccnc(Nc4ccc(CCN5CCNCC5)cc4)n3)c2c1 [Cpd 20, [4-(2-piperazin-1-yl-ethyl)-phenyl]-[4-(1H-pyrrolo[2,3-b]pyridin-3-yl)-pyrimidin-2-yl]-amine]"
0.018,0.011,0.084,0.173,0.074,0.035,0.055,0.587,"c1cnc2[nH]cc(-c3ccnc(Nc4ccc(CCN5CCOCC5)cc4)n3)c2c1 [Cpd 22, [4-(2-Morpholin-4-yl-ethyl)-phenyl]-[4-(1H-pyrrolo[2,3-b]pyridin-3-yl)-pyrimidin-2-yl]-amine]"
0.062,0.01,0.01,0.173,0.021,0.062,0.061,1.41,"OCCOc1ccc(Nc2nccc(-c3c[nH]c4ncccc34)n2)cc1 [Cpd 4, 2-{4-[4-(1H-Pyrrolo[2,3-b]pyridin-3-yl)-pyrimidin-2-ylamino]-phenoxy}-ethanol]"
0.068,0.012,0.093,0.182,0.051,0.062,0.04,–,"CNCCc1ccc(Nc2nccc(-c3c[nH]c4ncccc34)n2)cc1 [Cpd 25, [4-(2-Methylamino-ethyl)-phenyl]-[4-(1H-pyrrolo[2,3-b]pyridin-3-yl)-pyrimidin-2-yl]-amine]"
0.025,0.012,0.066,0.257,0.039,0.03,0.024,–,"CN(C)CCc1ccc(Nc2nccc(-c3c[nH]c4ncccc34)n2)cc1 [Cpd 23, [4-(2-Dimethylamino-ethyl)-phenyl]-[4-(1H-pyrrolo[2,3-b]pyridin-3-yl)-pyrimidin-2-yl]-amine]"
0.26,0.032,0.213,0.159,0.054,0.382,0.468,1,"c1ccc(Nc2nccc(-c3c[nH]c4ncccc34)n2)cc1 [Cpd 3, Phenyl-[4-(1H-pyrrolo[2,3-b]pyridin-3-yl)-pyrimidin-2-yl]-amine]"

# — patent publication US7855205B2, “Pyrimidinyl substituted fused-pyrrolyl compounds useful in treating kinase disorders” (Janssen Pharmaceutica NV, priority 2004, dated 2010)
